Data on four molecules can be found in ChEMBL document CHEMBL4152189, “Incorporation of nitric oxide donor into 1,3-dioxyxanthones leads to synergistic anticancer activity” (Eur J Med Chem, 2018).

The structures appear in SMILES notation.

Test [1] relates to HepG2. As to the kind of experiment: Growth inhibition of human HepG2 cells after 24 hrs by MTT assay. The test is classed as functional, cell-based. The following applies: HepG2, 24 h.
A further test concerns MDA-MB-231. As to the kind of experiment: Growth inhibition of human MDA-MB-231 cells after 24 hrs by MTT assay. The test is classed as functional, cell-based. The settings on record: MDA-MB-231, 24 h. A general note: Formazan colour is commonly taken as a measure of viable cells.
For the next test, the system named is MCF7. The test is described as follows: Growth inhibition of human MCF7 cells after 24 hrs by MTT assay. It is filed as functional, cell-based. The following applies: MCF7, 24 h.
Test [2] concerns HepG2. The test is described as follows: Induction of NO generation in human HepG2 cells assessed as nitrite levels at 0.66 uM after 1 hr by Griess assay (reference value: 12.9 +/- 1.5 uM). It is filed as functional. A general note: Nitrite, measured by Griess reagent, commonly stands in for NO production.
In test [3] the test system is HepG2. The test is described as follows: Induction of NO generation in human HepG2 cells assessed as nitrite levels at 0.66 uM after 3 hrs by Griess assay (reference value: 12.8 +/- 1.5 uM). The test is classed as functional.
The subject of test [4] is HepG2. The test is described as follows: Induction of NO generation in human HepG2 cells assessed as nitrite levels at 0.66 uM after 6 hrs by Griess assay (reference value: 12.6 +/- 1.1 uM). The test is classed as functional.
Test [5] concerns HepG2. The test is described as follows: Induction of NO generation in human HepG2 cells assessed as nitrite levels at 0.66 uM after 12 hrs by Griess assay (reference value: 12.7 +/- 1.8 uM). The test is classed as functional.
Test [6] concerns HepG2. As to the kind of experiment: Induction of NO generation in human HepG2 cells assessed as nitrite levels at 0.66 uM after 24 hrs by Griess assay (reference value: 12.8 +/- 1.7 uM). It is filed as functional.
The test system of test [7] is HepG2. The test is described as follows: Induction of NO generation in human HepG2 cells assessed as nitrite levels at 0.66 uM after 48 hrs by Griess assay (reference value: 12.8 +/- 1.7 uM). The test is classed as functional.
Test [8] concerns HepG2. As to the kind of experiment: Induction of NO generation in human HepG2 cells assessed as nitrite levels at 0.66 uM after 60 hrs by Griess assay (reference value: 12.8 +/- 1.5 uM). It is filed as functional.
In test [9] the test system is L02. As to the kind of experiment: Induction of NO generation in human HL-7702 cells assessed as nitrite levels at 0.66 uM after 1 hr by Griess assay (reference value: 11.6 +/- 1.1 uM). The test is classed as functional.
Test [10] concerns L02. The test is described as follows: Induction of NO generation in human HL-7702 cells assessed as nitrite levels at 0.66 uM after 3 hrs by Griess assay (reference value: 11.6 +/- 1.2 uM). The test is classed as functional.
Test [11] deals with L02. As to the kind of experiment: Induction of NO generation in human HL-7702 cells assessed as nitrite levels at 0.66 uM after 6 hrs by Griess assay (reference value: 11.8 +/- 1.1 uM). The test is classed as functional.
The subject of test [12] is L02. As to the kind of experiment: Induction of NO generation in human HL-7702 cells assessed as nitrite levels at 0.66 uM after 12 hrs by Griess assay (reference value: 11.8 +/- 1.2 uM). The test is classed as functional.
The test system of test [13] is L02. As to the kind of experiment: Induction of NO generation in human HL-7702 cells assessed as nitrite levels at 0.66 uM after 24 hrs by Griess assay (reference value: 11.6 +/- 1.1 uM). It is filed as functional.
In test [14] the test system is L02. The test is described as follows: Induction of NO generation in human HL-7702 cells assessed as nitrite levels at 0.66 uM after 48 hrs by Griess assay (reference value: 11.6 +/- 1.1 uM). It is filed as functional.
Test [15] deals with L02. As to the kind of experiment: Induction of NO generation in human HL-7702 cells assessed as nitrite levels at 0.66 uM after 60 hrs by Griess assay (reference value: 11.8 +/- 1.3 uM). The test is classed as functional.

Take `O=[N+]([O-])OCCCCCO`: the IC50 (commonly the point on the concentration scale where inhibition reaches its midpoint) in the test on HepG2 [1] was 72.8 µM; with MDA-MB-231, 140 µM; in the test with MCF7, 102 µM. Also, the Activity was found to be 16.2 µM in the test with HepG2 [2]; 18.4 µM in the test on HepG2 [3]; 23.3 µM in the test on HepG2 [4]; 26 µM in the test on HepG2 [5]; 29.2 µM with HepG2 [6]; 24.6 µM with HepG2 [7]. Also, the Activity with HepG2 [8] is 17.1 µM; in the test with L02 [9] it was 13.5 µM; with L02 [10], 13.8 µM; in the test on L02 [11] it was 16 µM; with L02 [12] it was 17.5 µM; in the test on L02 [13], 14.1 µM. In addition, the values for the Activity in the test on L02 [14] and in the test with L02 [15] were 13.4 µM and 13.3 µM, respectively.

Turning to `O=c1c2ccccc2oc2cc(OCCO[N+](=O)[O-])cc(O)c12`, the half-inhibitory concentration (IC50) was 20.5 µM in the test on HepG2 [1], 90.9 µM with MDA-MB-231 and more than 200 µM in the test with MCF7.

With `O=c1c2cc(Cl)ccc2oc2cc(OCCCCCCO[N+](=O)[O-])cc(O)c12`, the IC50 came to 6.03 µM in the test on HepG2 [1], 9.74 µM in the test on MDA-MB-231 and 13.3 µM with MCF7.

As for `O=c1c2cc(O)ccc2oc2cc(OCCCO[N+](=O)[O-])cc(O)c12`, the IC50 with HepG2 [1] is 33 µM; with MDA-MB-231, 134 µM; in the test with MCF7 it was more than 200 µM.
